This is an account of results in publication PMC8158122, “Development of Pelubiprofen Tromethamine with Improved Gastrointestinal Safety and Absorption” (Pharmaceutics, 2021).

A word on the solubility: it is how much of the substance goes into solution per volume. By AUC(0-t) is commonly meant exposure summed from dosing to a finite time, without extrapolation to infinity. The Cmax is the maximum level reached in the sampled fluid or tissue. What is called Tmax is the time at which the peak concentration occurs. As a reminder, the efflux ratio is a quotient of directional permeabilities that is used to spot active efflux.

Converted amounts (≈) assume the structure as drawn. Read-outs that look alike come from different tables or passages of the source.

A short description of data set [1]: Solubility at various pH values. It counts as physicochemical. As to conditions: thermodynamic from solid, stirred 24 h, mean ± S.D. (n = 3). How it is done:
(§1) PEL and butylparaben (IS) were prepared and further diluted in a mixture of methanol and deionized water at a ratio of 4:1 (v/v) to provide a working PEL and IS solution of concentration 30 µg/mL. The PEL concentration was determined using an HPLC system (Model 1260; Agilent Technologies Inc., Santa Clara, CA, USA). Chromatographic separation was performed using a C18 column (4.6 × 150 mm, 5 µm, Waters, Milford, MA, USA) at a flow rate of 1.1 mL/min with the mobile phase consisting of methanol, water, and acetic acid at a ratio of 1200:800:1 (v/v). The sample was injected into the column, and the peaks were monitored using a UV detector at 274 nm.
The solubilities of PEL-T and PEL were compared and evaluated based on the pH changes. After dissolving 5 g of PEL-T and PEL each in 5 mL of water, a pH 1.2 solution, a pH 4.0 solution, and a pH 6.8 solution, respectively, the mixtures were stirred for 24 h, filtered using a 0.45 μm polyvinylidene difluoride (PVDF) syringe filter, and then were analyzed using an HPLC assay, as described above (Section 2.4).

Data set [2] in a line: PK study in rats after oral administration. The data set is classed as in vivo, Sprague-Dawley (SD) rats. Particulars: male, Sprague-Dawley, rat, PEL in plasma, single oral dose 9.3 mg/kg PEL equivalent, n = 10.
Procedure: Male Sprague-Dawley (SD) rats (8-weeks-old) from DBL Co., Ltd. (Eumseong, Korea) were maintained under constant laboratory conditions (temperature: 22 ± 3 °C, RH: 50 ± 20%, light/dark cycle: 12 h). The rats were divided into two groups, each composed of 10 rats. The animals were fasted overnight and were only allowed free access to water. […] Blood samples (500 μL) were collected directly from the jugular vein at predetermined time points (0, 0.083, 0.167, 0.25, 0.5, 0.75, 1, 2, 3, 4, and 8 h) using heparinized syringes. The collected blood samples were centrifuged immediately at 12,000 rpm for 5 min at 4 °C and the obtained plasma samples were stored at −70 °C until analysis.
The plasma concentration of PEL was determined using LC–MS/MS (Agilent 1260; Agilent Technologies Inc., Santa Clara, CA, USA). The chromatographic separation of PEL was performed using an ODS column (Poroshell 120 EC-C18, 2.1 × 30 mm, 2.7 µm, Agilent Technologies Inc., Santa Clara, CA, USA). The mobile phase (MP) consisted of 0.1% formic acid and acetonitrile with a gradient elution and the flow rate used was 0.4 mL/min. Mass spectrometric detection was done using an AB Sciex API 4000 triple quadrupole mass spectrometer (AB Sciex Instruments, Framingham, MA, USA). The electrospray ionization (ESI) source was set to positive ion mode. The mass-to-charge ratios (m/z) used were 259.0 → 195.2 for PEL and 255.1 → 208.9 for ketoprofen, which were used as the internal standards (IS). […] The assay method was validated for linearity, accuracy, and precision.
The PK parameters for PEL were calculated using the noncompartmental analysis and WinNonlin® 8.1 (Pharsight, CA, USA). The area under the plasma concentration–time curve from 0 h to the last time point (AUCt) was calculated for all samples using the linear trapezoidal method. The maximum plasma concentration and time to reach the maximum plasma concentration (Tmax) were directly obtained from the plasma concentration–time profiles.
On the set-up of data set [3]: method as in PMID 27492018, doi:10.2133/dmpk.10.637. Particulars: oral administration, cited from earlier work.
On the set-up of data set [4]: method as in PMID 27492018, doi:10.2133/dmpk.10.637. As to conditions: oral administration, rats; cited from earlier work.
Data set [5] concerns gastric mucosa. The experiment in a line: Gastric mucosal injury test in rats. It counts as in vivo, Sprague-Dawley (SD) rats. Particulars: single p.o. dose equivalent to PEL 300 mg/kg, 6 h after dosing, 48 h fasted male SD rats, n = 10. The method, then:
The gastric mucosal injury test was performed by KNOTUS Co., Ltd. (Guri, Korea) and approved by the Animal Ethics Committee (Protocol number: […]-354 approved 18 October 2018). Male Sprague-Dawley (SD) rats (7-weeks-old) from Orient bio Co., Ltd. […] The rats were randomly divided into three groups, each group consisting of 10 animals. […] The area of the lesions was analyzed using ImageJ software (National Institutes of Health, Bethesda, MD, USA).

Data set [6] in a line: Stress stability test (high temperature or high humidity). It counts as physicochemical. The method, then: as §1
Stability tests of PEL-T and PEL were performed under stress storage conditions. PEL-T and PEL were packed into high-density polyethylene (HDPE) bottles with caps and used as stability test samples. For stress stability, the samples were stored at a high temperature (80 ± 5 °C) or high humidity (relative humidity (RH) 90 ± 5%). The drug content and impurities were determined using the HPLC assay described above (Section 2.4) at the following time points: 0, 14, and 21 days (Tables S3 and S4).

The test system of data set [7] is Caco-2 cells. The experiment in a line: Permeability test in Caco-2 cell monolayers. It counts as in vitro ADME. On the technique in general: Caco-2 monolayers are a common model of the intestinal barrier.
Procedure: (§2) Caco-2 monolayer experiments were performed as previously described with a few modifications [20]. The Caco-2 cells were obtained from the Korean Cell Line Bank (Seoul, Korea) and used in the transport experiments between passages 40 and 50. The cells were cultured at 37 °C with 5% CO2 and maintained in Dulbecco’s modified Eagle’s medium with 10% fetal bovine serum, 1% nonessential amino acids, 10,000 units/mL penicillin, and 10,000 μg/mL streptomycin. For the transport studies, cells were seeded on rat tail collagen-coated Transwell insert filters on 12-well plates at 3 × 10^5 cells/500 μL and were cultured for 21–29 days. For the first 7 days, the medium was replaced every 2–3 days, and daily thereafter. Monolayer integrity was checked before and after each experiment using a Millicell-ERS instrument to determine the transepithelial electrical resistance (TEER) across the monolayer and to ensure that there were no substantial changes in the monolayer integrity throughout the duration of the experiments.
(§3) Prior to transport experiments, the cell monolayers were washed twice using Hank’s balanced salt solution (HBSS), and the Caco-2 cell Transwell model was preincubated at 37 °C for 15 min. […] The sample was pretreated using a protein precipitation method and the concentrations of PEL in each sample were determined using an LC–MS/MS assay, as described below (Section 2.9). […] The sample was pretreated using a protein precipitation method and the concentration of PEL in each sample was determined using an LC–MS/MS assay. The steady state flux (Js) and permeability coefficient (Kp) were calculated according to Equations (1) and (2):Js [ng/(cm^2 × h)] = Qr/(A × t)(1) Kp (cm/h) = Js/Cd(2) where Qr is the total permeation amount of PEL in the basolateral (for the absorptive transport) or apical (for the secretory transport) side (ng), A is the surface area of the insert (1.12 cm^2), t is the permeation time (h), and Cd is the initial drug concentration in the apical (for the absorptive transport) or basolateral (for the secretory transport) side (ng/cm^3). […]
Data set [8] can be described thus: Permeability test in Caco-2 cell monolayers. The data set is classed as in vitro ADME. Particulars: human, Caco-2; Kp [B to A]/Kp [A to B].
Procedure: as §2, §3

Turning to `CC(C(=O)O)c1ccc(C=C2CCCCC2=O)cc1` (stereo not drawn) [PEL, 2-[4-(2-oxocyclohexylidenemethyl)phenyl] propionic acid], the solubility at 24 h in data set [1] (aqueous buffer, pH 4.0 solution) is 70 ± 40 µg/mL (≈ 271 µM); in data set [1] (aqueous buffer, pH 6.8 solution), 4050 ± 140 µg/mL (≈ 15700 µM); in data set [1] (simulated gastric fluid, pH 1.2 solution), 30 ± 10 µg/mL (≈ 116 µM); in data set [1] (water) it was 130 ± 30 µg/mL (≈ 503 µM). Besides, the AUC(0-t) in data set [2] came out at 19.2 ± 7.01 ng·h/mL. Besides, the Cmax in data set [2] is 46.3 ± 29.2 ng/mL. The Tmax in data set [2] (plasma, po, 9.3 mg/kg) worked out at 23.4 ± 11.4 min. The “Time to reach the maximum plasma concentration (Cmax)” value in data set [3] (female beagle dogs) was 2 h; in data set [3] (male beagle dogs) it was 1 h; in data set [4], 30 min. Further, the “Damage area (mucosal hemorrhagic lesions)” value in data set [5] came out at 4.01%. In data set [6] (80 ± 5 °C or RH 90 ± 5%, entire period (21 days)), the “Changes in the drug contents in the stress stability test” value is recorded as “No significant changes”. Also, the Contents in data set [6] (80 ± 5 °C, 0 days) amounted to 98.6 ± 0.8%; in data set [6] (80 ± 5 °C, 14 days), 98.2 ± 0.6%; in data set [6] (80 ± 5 °C, 21 days), 97.1 ± 0.9%; in data set [6] (RH 90 ± 5%, 0 days) it was 98.6 ± 0.8%; in data set [6] (RH 90 ± 5%, 14 days) it was 98.9 ± 0.4%; in data set [6] (RH 90 ± 5%, 21 days) it was 98.5 ± 0.4%. Besides, in data set [7], the “Efflux ratio, times higher than that of PEL-T” value is 1.6 times. The “Kp B to A, times higher than that of PEL-T” value in data set [7] (secretory direction, not statistically significant) is recorded as 1.3 times. In data set [8], the efflux ratio at 120 min, 50 μM came to 1.24.
